Reference: patent US12655090B2, “Cyclopropylamide compounds against parasites in fish” (Intervet Inc., priority 2021, dated 2026)
Like-named read-outs stand apart in the source and are kept apart here.

Key:
[1] = tested on: Lepeophtheirus salmonis sea lice on salmon (Salmo salar); assay: Salmon in vivo efficacy trial using gavage administration; conditions: po
Experimental: Salmon (Salmo salar) were treated once orally by gavage at a dose of 5 mg/kg bodyweight per fish (Day 0). As formulation DMSO 5%/fish oil 95% was used. Salmon of the negative control group received only the excipients of the formulation. The fish were infested with Lepeophtheirus salmonis copepodids twice before treatment (i.e., around day −28 and day −3) and once after treatment (i.e., day 17). […] Around day 28 (end of animal phase), fish were euthanized, and lice on each fish were classified ((pre-)adult or juvenile stage) and counted. […] Efficacy is expressed as a % reduction of sea lice in treated groups versus a control group, using the Abbott's formula.

[2] = tested on: Lepeophtheirus salmonis sea lice on salmon (Salmo salar); assay: Salmon in vivo efficacy trial using in-feed administration; conditions: 1 mg/kg fish biomass via coated feed for 7 consecutive days; for therapeutic efficacy against juvenile sea lice: day -3 infestation, counted around day 25; for therapeutic efficacy against (pre-)adult sea lice: day -28 infestation, counted around day 8
Experimental: Commercial fish feed pellets were coated with formulated test compound. As formulation DMSO 5%/fish oil 95% was used. Salmon (Salmo salar) were treated orally with 1 mg/kg fish biomass via coated feed for 7 consecutive days. Salmon of the negative control groups received only feed coated with the excipients of the formulation. Fish of the therapeutic groups were infested with Lepeophtheirus salmonis copepodids twice before treatment (around day −28 and day −3).

[3] = tested on: Mobile stages of sea lice (pre-adults, adults of Lepeophtheirus salmonis); assay: Adult sea lice contact assay; conditions: assessed after approximately 1 and 24 hours of continuous exposure, read-out: EC50 (sea lice inhibition, dead+damaged sea lice)
Experimental: Mobile stages of sea lice (i.e., pre-adults, adults of Lepeophtheirus salmonis) were exposed to seawater spiked with declining concentrations of a test compound (dissolved in a PEG sea-water mixture). Sea lice inhibition (% of dead+damaged sea lice) was assessed after approximately 1 and 24 hours of continuous exposure in comparison to a negative (solvent) control group.

[4] = tested on: Copepodids (juvenile sea lice stage of Lepeophtheirus salmonis); assay: Juvenile sea lice contact assay; conditions: approximately 24 hours continuous exposure in seawater, read-out: Sea lice inhibition (% of dead+damaged copepodids)
Experimental: Copepodids (juvenile sea lice stage of Lepeophtheirus salmonis) were exposed to seawater spiked with declining concentrations of a test compound (dissolved in a DMSO sea-water mixture). Sea lice inhibition (% of dead+damaged copepodids) was assessed after approximately 24 hours of continuous exposure. The vitality of used parasites was confirmed in a negative (solvent) control group.

[5] = tested on: fully susceptible Lepeophtheirus salmonis isolate, mobile sea lice stages; assay: Sea lice resistance assay, sensitive isolate
Experimental: (§1) A sea lice resistance assay was carried out using mobile sea lice stages (i.e., pre-adults, adults) of several Lepeophtheirus salmonis-isolates with known resistance profiles (i.e., fully susceptible or multiresistant (resistant to azametiphos (OP), emamectin benzoate (ML), deltamethrin (SP)). Sea lice were exposed to seawater spiked with declining concentrations of a test compound (dissolved in a PEG300/sea-water mixture). Sea lice inhibition (% of dead+damaged sea lice) was assessed after approximately 24 and 48 hours of continuous exposure in comparison to a negative (solvent) control group.

[6] = tested on: multiresistant Lepeophtheirus salmonis isolate (resistant to azametiphos, emamectin benzoate, deltamethrin), mobile sea lice stages; assay: Sea lice resistance assay, multi-resistant isolate
Experimental: as §1

[7] = 168 h, read-out: therapeutic efficacy against (pre-)adult sea lice (% reduction vs control, Abbott's formula), once orally by gavage 5 mg/kg bodyweight, day -28 infestation, counted at day 7
[8] = 672 h, read-out: prophylactic efficacy at re-infestation on Day 17 (% reduction vs control, Abbott's formula), once orally by gavage 5 mg/kg bodyweight, re-infestation day 17, counted around day 28
[9] = 672 h, read-out: therapeutic efficacy against juvenile sea lice (% reduction vs control, Abbott's formula), once orally by gavage 5 mg/kg bodyweight, day -3 infestation, counted around day 28

## N#CC1(NC(=O)c2cc(NC(=O)[C@H]3[C@H](c4cc(Cl)c(Cl)c(Cl)c4)C3(Cl)Cl)ccc2Cl)CC1 [Compound 1541]
[1]; [7]
  inhibition in vivo at 5 mg/kg: 80%
[1]; [8]
  inhibition in vivo at 5 mg/kg: 100%
[1]; [9]
  inhibition in vivo at 5 mg/kg: 100%
[2]
  therapeutic efficacy against juvenile sea lice: 100%
  therapeutic efficacy against (pre-)adult sea lice: 100%
  prophylactic efficacy against re-infestation after treatment (D14): 100%
  prophylactic efficacy against re-infestation after treatment (D28): 100%
[3]
  EC50: 1 to 10 nM
[4]; test concentration 10 nM
  inhibition at 0.01 µM: 100%

## N#CC1(NC(=O)c2cc(NC(=O)[C@H]3[C@H](c4cc(Cl)cc(Cl)c4)C3(Cl)Cl)ccc2Cl)CC1 [Compound 1590]
[5]; after 24 hours
  EC50: 4.12 ppb
[5]; after 48 hours
  EC50: 0.40 ppb
[6]; after 24 hours
  EC50: 3.75 ppb
[6]; after 48 hours
  EC50: 0.58 ppb
[1]; [7]
  inhibition in vivo at 5 mg/kg: 100%
[1]; [8]
  inhibition in vivo at 5 mg/kg: 80%
[1]; [9]
  inhibition in vivo at 5 mg/kg: 80%
[2]
  therapeutic efficacy against juvenile sea lice: 100%
  therapeutic efficacy against (pre-)adult sea lice: 100%
  prophylactic efficacy against re-infestation after treatment (D14): 100%
  prophylactic efficacy against re-infestation after treatment (D28): 79.2%
[3]
  EC50: ≤ 1 nM
[4]; test concentration 1 nM
  inhibition at 0.001 µM: 80%

## N#CC1(NC(=O)c2cc(NC(=O)[C@H]3[C@H](c4cc(Cl)cc(Cl)c4)C3(Cl)Cl)cc(F)c2F)CC1 [Compound 1594]
[1]; [7]
  inhibition in vivo at 5 mg/kg: 100%
[1]; [8]
  inhibition in vivo at 5 mg/kg: 100%
[1]; [9]
  inhibition in vivo at 5 mg/kg: 100%
[2]
  therapeutic efficacy against juvenile sea lice: 100%
  therapeutic efficacy against (pre-)adult sea lice: 100%
  prophylactic efficacy against re-infestation after treatment (D14): 100%
  prophylactic efficacy against re-infestation after treatment (D28): 100%
[3]
  EC50: ≤ 1 nM
[4]; test concentration 0.1 nM
  inhibition at 0.0001 µM: 80%
